Laboratory results from patent US11407736B2 (priority 2019, dated 2022).
Where two headings read alike, the source gives them in different places.

How the values were obtained:
[1] = target: RIPK1 (Homo sapiens (Human), UniProt Q13546); test: RIPK1 ADP-Glo biochemical kinase assay; details: read-out: RIPK1 ADP-Glo Kinase (IC50)
Method: The final reaction volume was 5.0ul.
Adding 5 μl of ADP-Glo™ terminated the reaction.

[2] = test system: U937 cells; test: U937 cell necroptosis assay (TNFa + zVAD, CellTiter-Glo); type: cell-based, human; details: Homo sapiens, U-937, U937 cells, TNFa + zVAD; read-out: U937 Zvad TNF CTG Recovery, U937, TNFa + zVAD (IC50)
In short: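 Necroptosis was induced with TNFa at 2 ng/mL final for 18 h at 37 °C, following 1 h compound pre-incubation in the presence of zVAD-fmk (60 uM for U937 plating medium, 40 uM for L929 medium). Luminescent CellTiter-Glo signal gave relative cell survival.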

[3] = test system: L929 cells; test: L929 cell necroptosis assay (TNFa + zVAD, CellTiter-Glo); type: cell-based, murine; details: Mus musculus, TNFa + zVAD, read-out: L929-CTG-recovery, L929, TNFa + zVAD (IC50)
In short: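 Necroptosis was read as CellTiter-Glo luminescence 18 hours after TNFa stimulation at 37° C, 5% CO2. Prior to that, L929 cells (10K/well, plated 18 h) received fresh medium with 40 uM zVAD-fmk plus 4-fold serially diluted compound.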

Sequence of RIPK1 (Q13546 whole entry, species assumed): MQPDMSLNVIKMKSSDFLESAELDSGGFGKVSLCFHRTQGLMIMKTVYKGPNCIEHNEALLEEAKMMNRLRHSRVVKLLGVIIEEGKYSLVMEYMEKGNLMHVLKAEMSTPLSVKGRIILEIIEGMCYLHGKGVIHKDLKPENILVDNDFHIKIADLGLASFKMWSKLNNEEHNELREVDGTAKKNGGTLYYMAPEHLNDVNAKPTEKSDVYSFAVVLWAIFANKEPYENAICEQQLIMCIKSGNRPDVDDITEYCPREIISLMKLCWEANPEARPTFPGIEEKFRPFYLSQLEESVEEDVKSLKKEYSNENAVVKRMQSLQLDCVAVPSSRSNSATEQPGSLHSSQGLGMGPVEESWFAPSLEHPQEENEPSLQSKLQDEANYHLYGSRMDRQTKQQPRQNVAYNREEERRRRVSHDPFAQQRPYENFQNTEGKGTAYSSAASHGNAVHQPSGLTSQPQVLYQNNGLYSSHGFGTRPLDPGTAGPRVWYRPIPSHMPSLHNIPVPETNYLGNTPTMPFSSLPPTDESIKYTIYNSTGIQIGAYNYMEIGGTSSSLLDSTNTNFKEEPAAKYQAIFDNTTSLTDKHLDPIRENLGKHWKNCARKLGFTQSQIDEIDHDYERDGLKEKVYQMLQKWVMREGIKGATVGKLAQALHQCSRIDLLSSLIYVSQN

Row | SMILES | IC50 [1] [µM] | IC50 [2] [µM] | IC50 ([3]; L929, L929 cells) [µM] | IC50 ([3]; L929 cells) [µM]
1 | CCN1C(=O)[C@@H](NC(=O)c2n[nH]c(Cc3ccccc3)n2)COc2ccc(C#CC(C)(C)O)cc21 [Compound I-91, (S)-5-benzyl-N-(5-ethyl-7-(3-hydroxy-3-methylbut-1-yn-1-yl)-4-oxo-2,3,4,5-tetrahydrobenzo[b][1,4]oxazepin-3-yl)-1H-1,2,4-triazole-3-carboxamide] | 0.388 | 0.0198 | 0.0037 | 
2 | CN1CCC2(CC1)CCN(c1ccc3c(c1)N(C)C(=O)[C@@H](NC(=O)c1cc(Oc4ccccc4)ccn1)CO3)CC2 [II-27, (S)—N-(5-Methyl-7-(9-methyl-3,9-diazaspiro[5.5]undecan-3-yl)-4-oxo-2,3,4,5-tetrahydrobenzo[b][1,4]oxazepin-3-yl)-4-phenoxypicolinamide] | 0.0279 | 0.0633 |  | 10.5
3 | CN1C(=O)[C@@H](NC(=O)c2cc(Oc3ccc(F)cc3F)ccn2)COc2ccc(C#CC(C)(C)C)cc21 [Compound I-104, (S)-4-(2,4-difluorophenoxy)-N-(7-(3,3-dimethylbut-1-yn-1-yl)-5-methyl-4-oxo-2,3,4,5-tetrahydrobenzo[b][1,4]oxazepin-3-yl)picolinamide] | 0.581 | 0.224 | 1.82 | 
4 | CN1C(=O)[C@@H](NC(=O)c2ncn(Cc3ccccc3)n2)COc2ccc(C#CCCOc3cccc4ncccc34)cc21 [Compound I-44, (S)-1-benzyl-N-(5-methyl-4-oxo-7-(4-(quinolin-5-yloxy)but-1-yn-1-yl)-2,3,4,5-tetrahydrobenzo[b][1,4]oxazepin-3-yl)-1H-1,2,4-triazole-3-carboxamide] | 0.034 | 0.0011 | 0.0002 | 
5 | CN1C(=O)[C@@H](NC(=O)c2cc(Oc3ccccc3)ccn2)COc2ccc(C#CC3(O)CCNCC3)cc21 [Compound I-132, (S)—N-(7-((4-hydroxypiperidin-4-yl)ethynyl)-5-methyl-4-oxo-2,3,4,5-tetrahydrobenzo[b][1,4]oxazepin-3-yl)-4-phenoxypicolinamide] | 0.0305 | 0.0359 | 4.6 | 
6 | C#Cc1ccc2c(c1)N(C)C(=O)[C@@H](NC(=O)c1n[nH]c(Cc3ccccc3)n1)CO2 [Compound I-81, (S)-5-benzyl-N-(7-ethynyl-5-methyl-4-oxo-2,3,4,5-tetrahydrobenzo[b][1,4]oxazepin-3-yl)-1H-1,2,4-triazole-3-carboxamide] | 0.019 | 0.0042 | 0.0012 | 

The next lines start with results.

Row | IC50 [1] [µM] | SMILES | IC50 [2] [µM] | IC50 ([3]; L929, L929 cells) [µM] | IC50 ([3]; L929 cells) [µM]
7 | 0.0592 | CN1C(=O)[C@@H](NC(=O)c2n[nH]c(Cc3ccccc3)n2)COc2ccc(CN3CCn4ncnc4C3)cc21 [Compound I-24, (S)-5-benzyl-N-(7-((5,6-dihydro-[1,2,4]triazolo[1,5-a]pyrazin-7(8H)-yl)methyl)-5-methyl-4-oxo-2,3,4,5-tetrahydrobenzo[b][1,4]oxazepin-3-yl)-1H-1,2,4-triazole-3-carboxamide] | 0.0036 | 4.61 | 
8 | 0.019 | CCOC(=O)CCc1ccc2c(c1)N(C)C(=O)[C@@H](NC(=O)c1n[nH]c(Cc3ccccc3)n1)CO2 [Compound I-1, Ethyl (S)-3-(3-(5-benzyl-1H-1,2,4-triazole-3-carboxamido)-5-methyl-4-oxo-2,3,4,5-tetrahydrobenzo[b][1,4]oxazepin-7-yl)propanoate] | 0.0027 | 2.36 | 
9 | 0.0124 | CN1C(=O)[C@@H](NC(=O)c2ncn(Cc3ccccc3)n2)COc2ccc(C#CC(C)(C)O)cc21 [Compound I-29, (S)-1-benzyl-N-(7-(3-hydroxy-3-methylbut-1-yn-1-yl)-5-methyl-4-oxo-2,3,4,5-tetrahydrobenzo[b][1,4]oxazepin-3-yl)-1H-1,2,4-triazole-3-carboxamide] | 0.0023 | 0.0088 | 
